Assay results published in PubChem BioAssay (NCI).
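Five compound concentrations were applied to cells in 96-well plates for 48 hours; endpoints were derived by simple linear interpolation of the resulting dose-response curve. GI50 marks 50% less growth. TGI marks complete inhibition of growth.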

Key:
Experiment in all cases: inhibition of tumour cell growth, NCI panel, 48 h
[1] = test system: NCI-H226 lung
[2] = test system: NCI-H23 lung
[3] = test system: NCI-H460 lung
[4] = test system: NCI-H522 lung
[5] = test system: NCI/ADR-RES ovarian
[6] = test system: OVCAR-4 ovarian
[7] = test system: OVCAR-5 ovarian
[8] = test system: OVCAR-8 ovarian
[9] = test system: PC-3 prostate
[10] = test system: RPMI-8226 leukemia
[11] = test system: RXF 393 renal
[12] = test system: SF-268 CNS
[13] = test system: SF-295 CNS
[14] = test system: SF-539 CNS
[15] = test system: SK-MEL-2 melanoma
[16] = test system: SK-MEL-28 melanoma
[17] = test system: SK-OV-3 ovarian
[18] = test system: SN12C renal
[19] = test system: SNB-19 CNS
[20] = test system: SR leukemia
[21] = test system: SW-620 colon
[22] = test system: T-47D breast
[23] = test system: TK-10 renal
[24] = test system: U251 CNS
[25] = test system: UACC-257 melanoma
[26] = test system: UACC-62 melanoma
[27] = test system: UO-31 renal

Compound: CC(C)(C)c1cc(NC(=O)Nc2ccc(-c3cn4c5c(sc4n3)CCc3cn(CCCN4CCCCC4)cc3-5)cc2)no1
- GI50 [1]: > 100000 nM
- TGI [1]: > 100000 nM
- GI50 [2]: 1820 nM
- TGI [2]: 3520 nM
- GI50 [3]: 1800 nM
- TGI [3]: 3640 nM
- GI50 [4]: 1890 nM
- TGI [4]: 3740 nM
- GI50 [5]: 2090 nM
- TGI [5]: 4730 nM
- GI50 [6]: 1780 nM
- TGI [6]: 3590 nM
- GI50 [7]: 1750 nM
- TGI [7]: 3180 nM
- GI50 [8]: 2270 nM
- TGI [8]: 5260 nM
- GI50 [9]: 1710 nM
- TGI [9]: 3230 nM
- GI50 [10]: 2360 nM
- TGI [10]: 6280 nM
- GI50 [11]: 1600 nM
- TGI [11]: 3100 nM
- GI50 [12]: 1810 nM
- TGI [12]: 3890 nM
- GI50 [13]: 1730 nM
- TGI [13]: 3250 nM
- GI50 [14]: 1740 nM
- TGI [14]: 3180 nM
- GI50 [15]: > 100000 nM
- TGI [15]: > 100000 nM
- GI50 [16]: 1820 nM
- TGI [16]: 3250 nM
- GI50 [17]: 1720 nM
- TGI [17]: 3280 nM
- GI50 [18]: 1850 nM
- TGI [18]: 3490 nM
- GI50 [19]: 1820 nM
- TGI [19]: 3340 nM
- GI50 [20]: 2130 nM
- TGI [20]: 6770 nM
- GI50 [21]: 1800 nM
- TGI [21]: 3360 nM
- GI50 [22]: 1790 nM
- TGI [22]: 3850 nM
- GI50 [23]: 1820 nM
- TGI [23]: 3270 nM
- GI50 [24]: 1470 nM
- TGI [24]: 2880 nM
- GI50 [25]: 1790 nM
- TGI [25]: 3500 nM
- GI50 [26]: > 100000 nM
- TGI [26]: > 100000 nM
- GI50 [27]: 1600 nM
- TGI [27]: 3000 nM
